The values below come from patent US10736883B2, “Triazole furan compounds as agonists of the APJ receptor” (AMGEN INC., priority 2016, dated 2020).

The target of the test is APJ receptor (Homo sapiens (Human), UniProt P35414). Briefly: [35S]GTPγS binding assay on membranes from CHO cells stably expressing human APJ receptor. The class given is biochemical. The settings on record: membranes of CHO cells stably expressing human APJ receptor, means of several independent experiments, read-out: Activity hAPJ SPA EC50 IP. The method, boiled down: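 EC50 values were obtained by non-linear regression of [35S]GTPγS (0.2 nM) binding after 90 min at RT, with nonspecific binding defined by 100 μM GTPγS. Reactions used human APJ–expressing CHO cell membranes on WGA PS beads in HEPES pH 7.5 buffer with 5 mM MgCl2, 200 mM NaCl, 3 μM GDP and 0.1% BSA.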
APJ receptor, sequence (P35414 whole entry): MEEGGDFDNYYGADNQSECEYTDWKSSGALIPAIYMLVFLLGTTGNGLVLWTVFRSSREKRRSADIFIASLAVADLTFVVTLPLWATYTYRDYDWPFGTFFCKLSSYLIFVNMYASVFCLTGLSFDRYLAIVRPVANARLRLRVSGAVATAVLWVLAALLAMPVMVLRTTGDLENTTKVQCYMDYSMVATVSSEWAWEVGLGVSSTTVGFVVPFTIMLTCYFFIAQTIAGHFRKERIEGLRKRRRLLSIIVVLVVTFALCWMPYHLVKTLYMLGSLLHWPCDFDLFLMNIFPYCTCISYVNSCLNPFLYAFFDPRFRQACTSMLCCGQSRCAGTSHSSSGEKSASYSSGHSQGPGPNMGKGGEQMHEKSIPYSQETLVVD
In general terms: GTPγS is a poorly hydrolysed GTP analogue; its binding reports G protein activation.

A word on the EC50: it is the midpoint of the concentration-response curve. For `COc1cccc(OC)c1-n1c(NS(=O)(=O)[C@H](C)[C@H](O)c2cn3ccccc3n2)nnc1-c1ccc(C)o1` (racemic) [Example 285.0, (1R,2R)—N-(4-(2,6-Dimethoxyphenyl)-5-(5-methyl-2-furanyl)-4H-1,2,4-triazol-3-yl)-1-hydroxy-1-imidazo[1,2-a]pyridin-2-yl-2-propanesulfonamide and (1S,2S)—N-(4-(2,6-dimethoxyphenyl)-5-(5-methyl-2-furanyl)-4H-1,2,4-triazol-3-yl)-1-hydroxy-1-imidazo[1,2-a]pyridin-2-yl-2-propanesulfonamide], the EC50 came out at 2.5 nM.
In the case of `COc1cccc(OC)c1-n1c(NS(=O)(=O)[C@H](C)Cc2ccc(C#N)cn2)nnc1-c1ccc(C)o1` (single isomer, unassigned) [Example 33.0, (2R)-1-(5-cyano-2-pyridinyl)-N-(4-(2,6-dimethoxyphenyl)-5-(5-methyl-2-furanyl)-4H-1,2,4-triazol-3-yl)-2-propanesulfonamide or (2S)-1-(5-cyano-2-pyridinyl)-N-(4-(2,6-dimethoxyphenyl)-5-(5-methyl-2-furanyl)-4H-1,2,4-triazol-3-yl)-2-propanesulfonamide], the EC50 came to 2.4 nM.
The result for `COc1cccc(OC)c1-n1c(NS(=O)(=O)[C@H](C)[C@H](O)c2cccc(C)n2)nnc1-c1ccc(C)o1` (stereo in doubt) [Example 87.0] reads 0.41 nM; that for `COc1cccc(OC)c1-n1c(NS(=O)(=O)[C@H]2C[C@@H](O)CN(c3cncc(C#N)c3)C2)nnc1-c1ccc(C)o1` (single isomer, unassigned) [Example 325.0, (3S,5R)-1-(5-Cyano-3-pyridinyl)-N-(4-(2,6-dimethoxyphenyl)-5-(5-methyl-2-furanyl)-4H-1,2,4-triazol-3-yl)-5-hydroxy-3-piperidinesulfonamide or (3R,5S)-1-(5-cyano-3-pyridinyl)-N-(4-(2,6-dimethoxyphenyl)-5-(5-methyl-2-furanyl)-4H-1,2,4-triazol-3-yl)-5-hydroxy-3-piperidinesulfonamide], 0.23 nM; that for `COc1cccc(OC)c1-n1c(NS(=O)(=O)[C@H](C)Cc2cncnc2)nnc1-c1ccco1` (single isomer, unassigned) [Example 45.0, (2R)—N-(4-(2,6-dimethoxyphenyl)-5-(2-furanyl)-4H-1,2,4-triazol-3-yl)-1-(5-pyrimidinyl)-2-propanesulfonamide or (2S)—N-(4-(2,6-dimethoxyphenyl)-5-(2-furanyl)-4H-1,2,4-triazol-3-yl)-1-(5-pyrimidinyl)-2-propanesulfonamide], 72 nM.
With `COc1cccc(OC)c1-n1c(NS(=O)(=O)[C@H](C)[C@H](O)c2ccnc3c2OCCC3)nnc1-c1ccc(C)o1` (racemic) [Example 291.0, (1R,2R)-1-(3,4-Dihydro-2H-pyrano[3,2-b]pyridin-8-yl)-N-(4-(2,6-dimethoxyphenyl)-5-(5-methyl-2-furanyl)-4H-1,2,4-triazol-3-yl)-1-hydroxy-2-propanesulfonamide and (1S,2S)-1-(3,4-dihydro-2H-pyrano[3,2-b]pyridin-8-yl)-N-(4-(2,6-dimethoxyphenyl)-5-(5-methyl-2-furanyl)-4H-1,2,4-triazol-3-yl)-1-hydroxy-2-propanesulfonamide] the figure was 5 nM; with `COCC[C@@H](Cc1ncc(C)cn1)S(=O)(=O)Nc1nnc(-c2ccc(C)o2)n1-c1c(OC)cccc1OC` (racemic) [Example 76.0, (2R)—N-(4-(2,6-dimethoxyphenyl)-5-(5-methyl-2-furanyl)-4H-1,2,4-triazol-3-yl)-4-methoxy-1-(5-methyl-2-pyrimidinyl)-2-butanesulfonamide and (2S)—N-(4-(2,6-dimethoxyphenyl)-5-(5-methyl-2-furanyl)-4H-1,2,4-triazol-3-yl)-4-methoxy-1-(5-methyl-2-pyrimidinyl)-2-butanesulfonamide], 0.6 nM.
Regarding `COc1cccc(OC)c1-n1c(NS(=O)(=O)[C@@H](C)Cc2ncc(F)c(C)n2)nnc1-c1ccco1` (racemic) [Example 234.0, (2S)—N-(4-(2,6-Dimethoxyphenyl)-5-(2-furanyl)-4H-1,2,4-triazol-3-yl)-1-(5-fluoro-4-methyl-2-pyrimidinyl)-2-propanesulfonamide and (2R)—N-(4-(2,6-dimethoxyphenyl)-5-(2-furanyl)-4H-1,2,4-triazol-3-yl)-1-(5-fluoro-4-methyl-2-pyrimidinyl)-2-propanesulfonamide], the EC50 came out at 0.54 nM.
With `COc1cccc(OC)c1-n1c(NS(=O)(=O)[C@@H](C)Cc2ncc(F)cn2)nnc1-c1ccc(C)o1` (racemic) [Example 94.0, (2S)—N-(4-(2,6-Dimethoxyphenyl)-5-(5-methyl-2-furanyl)-4H-1,2,4-triazol-3-yl)-1-(5-fluoro-2-pyrimidinyl)-2-propanesulfonamide and (2R)—N-(4-(2,6-dimethoxyphenyl)-5-(5-methyl-2-furanyl)-4H-1,2,4-triazol-3-yl)-1-(5-fluoro-2-pyrimidinyl)-2-propanesulfonamide] the figure was 0.17 nM; with `COc1cccc(OC)c1-n1c(NS(=O)(=O)[C@H]2C[C@@H](O)CN(c3ncc(F)cc3C#N)C2)nnc1-c1ccc(C)o1` (racemic) [Example 331.0, (3S,5R)-1-(3-Cyano-5-fluoropyridin-2-yl)-N-(4-(2,6-dimethoxyphenyl)-5-(5-methylfuran-2-yl)-4H-1,2,4-triazol-3-yl)-5-hydroxypiperidine-3-sulfonamide and (3R,5S)-1-(3-cyano-5-fluoropyridin-2-yl)-N-(4-(2,6-dimethoxyphenyl)-5-(5-methylfuran-2-yl)-4H-1,2,4-triazol-3-yl)-5-hydroxypiperidine-3-sulfonamide], 0.45 nM.
The result for `COc1cccc(OC)c1-n1c(NS(=O)(=O)[C@@H]2CCCN(C(=O)N(C)C)C2)nnc1-c1ccco1.COc1cccc(OC)c1-n1c(NS(=O)(=O)[C@H]2CCCN(C(=O)N(C)C)C2)nnc1-c1ccco1` (mixture of isomers) [Example 338.0, (R)-3-(N-(4-(2,6-Dimethoxyphenyl)-5-(furan-2-yl)-4H-1,2,4-triazol-3-yl)sulfamoyl)-N,N-dimethylpiperidine-1-carboxamide and (S)-3-(N-(4-(2,6-dimethoxyphenyl)-5-(furan-2-yl)-4H-1,2,4-triazol-3-yl)sulfamoyl)-N,N-dimethylpiperidine-1-carboxamide] reads 19 nM; that for `COc1cccc(OC)c1-n1c(NS(=O)(=O)[C@H]2C[C@@H](O)CN(c3cncc(C#N)n3)C2)nnc1-c1ccc(C)o1` (single isomer, unassigned) [Example 321.0, (3S,5R)-1-(6-Cyano-2-pyrazinyl)-N-(4-(2,6-dimethoxyphenyl)-5-(5-methyl-2-furanyl)-4H-1,2,4-triazol-3-yl)-5-hydroxy-3-piperidinesulfonamide or (3R,5S)-1-(6-cyano-2-pyrazinyl)-N-(4-(2,6-dimethoxyphenyl)-5-(5-methyl-2-furanyl)-4H-1,2,4-triazol-3-yl)-5-hydroxy-3-piperidinesulfonamide], 0.18 nM.
With `COc1cnc([C@@H](O)[C@H](C)S(=O)(=O)Nc2nnc(-c3ccc(C)o3)n2-c2c(OC)cccc2OC)cn1` (single isomer, unassigned) [Example 146.0, (1R, 2S)—N-(4-(2,6-Dimethoxyphenyl)-5-(5-methyl-2-furanyl)-4H-1,2,4-triazol-3-yl)-1-hydroxy-1-(5-methoxy-2-pyrazinyl)-2-propanesulfonamide or (1S, 2R)—N-(4-(2,6-dimethoxyphenyl)-5-(5-methyl-2-furanyl)-4H-1,2,4-triazol-3-yl)-1-hydroxy-1-(5-methoxy-2-pyrazinyl)-2-propanesulfonamide] the figure was 0.13 nM; with `COc1ncnc(OC)c1-n1c(NS(=O)(=O)CCc2ccc(F)cc2C#N)nnc1-c1ccco1` [Example 252.0, 2-(2-Cyano-4-fluorophenyl)-N-(4-(4,6-dimethoxy-5-pyrimidinyl)-5-(2-furanyl)-4H-1,2,4-triazol-3-yl)ethanesulfonamide], 9.7 nM.
Turning to `COc1cccc(OC)c1-n1c(NS(=O)(=O)[C@H](C)Cc2cnc(C)cn2)nnc1-c1ccco1` (single isomer, unassigned) [Example 32.0, (2R)—N-(4-(2,6-dimethoxyphenyl)-5-(2-furanyl)-4H-1,2,4-triazol-3-yl)-1-(5-methyl-2-pyrazinyl)-2-propanesulfonamide or (2S)—N-(4-(2,6-dimethoxyphenyl)-5-(2-furanyl)-4H-1,2,4-triazol-3-yl)-1-(5-methyl-2-pyrazinyl)-2-propanesulfonamide], the EC50 is 2.3 nM.
The result for `COc1cccc(OC)c1-n1c(NS(=O)(=O)CCc2ncc(Cl)cc2CN2CCOCC2)nnc1-c1ccco1` [Example 219.0, 2-(5-Chloro-3-(4-morpholinylmethyl)-2-pyridinyl)-N-(4-(2,6-dimethoxyphenyl)-5-(2-furanyl)-4H-1,2,4-triazol-3-yl)ethanesulfonamide] reads 0.26 nM.
With “(1R,2R)-N-(4-(2,6-dimethoxyphenyl)-5-(5-methyl-2-furanyl)-4H-1,2,4-triazol-3-yl)-1-methoxy-1-(5-methyl-2-pyrimidinyl)-2-propanesulfonamide or (1S,2S)-N-(4-(2,6-dimethoxyphenyl)-5-(5-methyl-2-furanyl)-4H-1,2,4-triazol-3-yl)-1-methoxy-1-(5-methyl-2-pyrimidinyl)-2-propanesulfonamide [Example 250.0]” the figure was 3.3 nM; with `COCC[C@@H]([C@H](C)c1ncc(F)cn1)S(=O)(=O)Nc1nnc(-c2ccc(C)o2)n1-c1c(OC)cccc1OC` (single isomer, unassigned) [Example 67.0], 0.36 nM; with `CO[C@H](c1ncc(Cl)cn1)[C@H](C)S(=O)(=O)Nc1nnc(-c2ccc(C)o2)n1[C@H]1CCCOC1` [Example 390.0, (1R,2S)-1-(5-chloropyrimidin-2-yl)-1-methoxy-N-(5-(5-methylfuran-2-yl)-4-((S)-tetrahydro-2H-pyran-3-yl)-4H-1,2,4-triazol-3-yl)propane-2-sulfonamide], 13 nM.
